Assay results from patent US20140121373A1, “PROCESS FOR PREPARING STABLE POLYMORPHIC FORM OF ERLOTINIB HYDROCHLORIDE” (CADILA HEALTHCARE LIMITED, priority 2011, published 2014).

Experiment: Chemical stability study of the stable form of Erlotinib hydrochloride (description, HPLC impurities, moisture content, assay on storage)
Format: physicochemical
Conditions: for Imp-1 (%) (N-(3-Ethynylphenyl)-6-(2-chloroethoxy)-7-(2-methoxyethoxy)-quinazolin-4-amine hydrochloride) / Imp-2 (%) (N-(3-Ethynylphenyl)-7-(2-chloroethoxy)-6-(2-methoxyethoxy)-quinazolin-4-amine hydrochloride): limit 0.15 w/w; for m/c (%): limit 0.5 w/w; for Assay (%), OAB: limit 98.0-102 w/w; for Description: limit White to off white; for HPLC single maximum impurity content / HPLC total impurity content / water content: storage condition not stated
Description: (Refrigerator), 25° C.±2° C.[…], 30° C.±2° C./65%±5% RH (Real Time) and 40° C.±2° C./75%±5% RH of Erlotinib Hydrochloride
Differential Scanning Calorimetry (DSC): Melting points are determined by means of a DSC thermogram using a Pyris-1 make Perkin Elmer. DSC (Differential Scanning Calorimetry) is the technique of dynamic differential Calorimetry. Using this technique, the melting temperature can be measured by heating the sample until a thermal, i.e. an endothermic or exothermic, reaction is detected by means of ultrasensitive sensors. The DSC cell/sample chamber was purged with 100 ml/min of ultra-high purity nitrogen. The instrument was calibrated with high purity Indium. The sample was placed into an open aluminum DSC pan and measured against an empty reference pan. About 2 mg of sample being placed into the bottom of the pan and lightly tapped down to ensure good contact with the pan. The instrument was programmed to heat at a heating rate of 10° C./min in the temperature range between 50° C. and 300° C. • Microscope: A Lieca Microscope with Linkam Hot stage microscopy (TMS-94) system with polarized light, CCD camera and Linksys 32 data software. • HPLC: High Performance Liquid Chromatography Separation Module with PDA detector, Make Waters, Model No 2695. • KF: Moisture content was analyzed by using Karl Fisher Autotitrator 795 KFT Titrino make Metrohm.

[1] = 5° C. ± 3° C. (Refrigerator), Month 1
[2] = 5° C. ± 3° C. (Refrigerator), Month 2
[3] = 5° C. ± 3° C. (Refrigerator), Month 3
[4] = 5° C. ± 3° C. (Refrigerator), Month 6
[5] = 25° C. ± 2° C./60% ± 5% RH, Month 1
[6] = 25° C. ± 2° C./60% ± 5% RH, Month 2
[7] = 25° C. ± 2° C./60% ± 5% RH, Month 3
[8] = 25° C. ± 2° C./60% ± 5% RH, Month 6
[9] = 30° C. ± 2° C./65% ± 5% RH (Real Time), Month 1
[10] = 30° C. ± 2° C./65% ± 5% RH (Real Time), Month 2
[11] = 30° C. ± 2° C./65% ± 5% RH (Real Time), Month 3
[12] = 30° C. ± 2° C./65% ± 5% RH (Real Time), Month 6
[13] = 40° C. ± 2° C./75% ± 5% RH, Month 1
[14] = 40° C. ± 2° C./75% ± 5% RH, Month 2
[15] = 40° C. ± 2° C./75% ± 5% RH, Month 3
[16] = 40° C. ± 2° C./75% ± 5% RH, Month 6

period over which stable with all impurities in limit (5° C. to 40° C./75% RH storage conditions of the chemical stability table): ≥ 6 months
Total Imp [1]: 0.12 % w/w
Imp-1 (%) (N-(3-Ethynylphenyl)-6-(2-chloroethoxy)-7-(2-methoxyethoxy)-quinazolin-4-amine hydrochloride) [1]: 0.05%
Imp-2 (%) (N-(3-Ethynylphenyl)-7-(2-chloroethoxy)-6-(2-methoxyethoxy)-quinazolin-4-amine hydrochloride) [1]: 0.07%
m/c (%) [1]: 0.16%
Assay (%), OAB [1]: 99.5%
Description [1]: Complies
Total Imp [2]: 0.13 % w/w
Imp-1 (%) (N-(3-Ethynylphenyl)-6-(2-chloroethoxy)-7-(2-methoxyethoxy)-quinazolin-4-amine hydrochloride) [2]: 0.05%
Imp-2 (%) (N-(3-Ethynylphenyl)-7-(2-chloroethoxy)-6-(2-methoxyethoxy)-quinazolin-4-amine hydrochloride) [2]: 0.08%
m/c (%) [2]: 0.15%
Assay (%), OAB [2]: 99.6%
Description [2]: Complies
Total Imp [3]: 0.13 % w/w
Imp-1 (%) (N-(3-Ethynylphenyl)-6-(2-chloroethoxy)-7-(2-methoxyethoxy)-quinazolin-4-amine hydrochloride) [3]: 0.05%
Imp-2 (%) (N-(3-Ethynylphenyl)-7-(2-chloroethoxy)-6-(2-methoxyethoxy)-quinazolin-4-amine hydrochloride) [3]: 0.08%
m/c (%) [3]: 0.15%
Assay (%), OAB [3]: 99.5%
Description [3]: Complies
Total Imp [4]: 0.14 % w/w
Imp-1 (%) (N-(3-Ethynylphenyl)-6-(2-chloroethoxy)-7-(2-methoxyethoxy)-quinazolin-4-amine hydrochloride) [4]: 0.06%
Imp-2 (%) (N-(3-Ethynylphenyl)-7-(2-chloroethoxy)-6-(2-methoxyethoxy)-quinazolin-4-amine hydrochloride) [4]: 0.08%
m/c (%) [4]: 0.15%
Assay (%), OAB [4]: 99.8%
Description [4]: Complies
Total Imp [5]: 0.13 % w/w
Imp-1 (%) (N-(3-Ethynylphenyl)-6-(2-chloroethoxy)-7-(2-methoxyethoxy)-quinazolin-4-amine hydrochloride) [5]: 0.05%
Imp-2 (%) (N-(3-Ethynylphenyl)-7-(2-chloroethoxy)-6-(2-methoxyethoxy)-quinazolin-4-amine hydrochloride) [5]: 0.08%
m/c (%) [5]: 0.14%
Assay (%), OAB [5]: 99.9%
Description [5]: Complies
Total Imp [6]: 0.13 % w/w
Imp-1 (%) (N-(3-Ethynylphenyl)-6-(2-chloroethoxy)-7-(2-methoxyethoxy)-quinazolin-4-amine hydrochloride) [6]: 0.05%
Imp-2 (%) (N-(3-Ethynylphenyl)-7-(2-chloroethoxy)-6-(2-methoxyethoxy)-quinazolin-4-amine hydrochloride) [6]: 0.08%
m/c (%) [6]: 0.13%
Assay (%), OAB [6]: 99.2%
Description [6]: Complies
Total Imp [7]: 0.13 % w/w
Imp-1 (%) (N-(3-Ethynylphenyl)-6-(2-chloroethoxy)-7-(2-methoxyethoxy)-quinazolin-4-amine hydrochloride) [7]: 0.05%
Imp-2 (%) (N-(3-Ethynylphenyl)-7-(2-chloroethoxy)-6-(2-methoxyethoxy)-quinazolin-4-amine hydrochloride) [7]: 0.08%
m/c (%) [7]: 0.14%
Assay (%), OAB [7]: 99.3%
Description [7]: Complies
Total Imp [8]: 0.13 % w/w
Imp-1 (%) (N-(3-Ethynylphenyl)-6-(2-chloroethoxy)-7-(2-methoxyethoxy)-quinazolin-4-amine hydrochloride) [8]: 0.05%
Imp-2 (%) (N-(3-Ethynylphenyl)-7-(2-chloroethoxy)-6-(2-methoxyethoxy)-quinazolin-4-amine hydrochloride) [8]: 0.08%
m/c (%) [8]: 0.14%
Assay (%), OAB [8]: 99.9%
Description [8]: Complies
Total Imp [9]: 0.14 % w/w
Imp-1 (%) (N-(3-Ethynylphenyl)-6-(2-chloroethoxy)-7-(2-methoxyethoxy)-quinazolin-4-amine hydrochloride) [9]: 0.06%
Imp-2 (%) (N-(3-Ethynylphenyl)-7-(2-chloroethoxy)-6-(2-methoxyethoxy)-quinazolin-4-amine hydrochloride) [9]: 0.08%
m/c (%) [9]: 0.12%
Assay (%), OAB [9]: 99.6%
Description [9]: Complies
Total Imp [10]: 0.13 % w/w
Imp-1 (%) (N-(3-Ethynylphenyl)-6-(2-chloroethoxy)-7-(2-methoxyethoxy)-quinazolin-4-amine hydrochloride) [10]: 0.05%
Imp-2 (%) (N-(3-Ethynylphenyl)-7-(2-chloroethoxy)-6-(2-methoxyethoxy)-quinazolin-4-amine hydrochloride) [10]: 0.08%
m/c (%) [10]: 0.15%
Assay (%), OAB [10]: 99.4%
Description [10]: Complies
Total Imp [11]: 0.13 % w/w
Imp-1 (%) (N-(3-Ethynylphenyl)-6-(2-chloroethoxy)-7-(2-methoxyethoxy)-quinazolin-4-amine hydrochloride) [11]: 0.05%
Imp-2 (%) (N-(3-Ethynylphenyl)-7-(2-chloroethoxy)-6-(2-methoxyethoxy)-quinazolin-4-amine hydrochloride) [11]: 0.08%
m/c (%) [11]: 0.15%
Assay (%), OAB [11]: 99.4%
Description [11]: Complies
Total Imp [12]: 0.14 % w/w
Imp-1 (%) (N-(3-Ethynylphenyl)-6-(2-chloroethoxy)-7-(2-methoxyethoxy)-quinazolin-4-amine hydrochloride) [12]: 0.06%
Imp-2 (%) (N-(3-Ethynylphenyl)-7-(2-chloroethoxy)-6-(2-methoxyethoxy)-quinazolin-4-amine hydrochloride) [12]: 0.08%
m/c (%) [12]: 0.14%
Assay (%), OAB [12]: 99.8%
Description [12]: Complies
Total Imp [13]: 0.14 % w/w
Imp-1 (%) (N-(3-Ethynylphenyl)-6-(2-chloroethoxy)-7-(2-methoxyethoxy)-quinazolin-4-amine hydrochloride) [13]: 0.06%
Imp-2 (%) (N-(3-Ethynylphenyl)-7-(2-chloroethoxy)-6-(2-methoxyethoxy)-quinazolin-4-amine hydrochloride) [13]: 0.08%
m/c (%) [13]: 0.15%
Assay (%), OAB [13]: 99.3%
Description [13]: Complies
Total Imp [14]: 0.13 % w/w
Imp-1 (%) (N-(3-Ethynylphenyl)-6-(2-chloroethoxy)-7-(2-methoxyethoxy)-quinazolin-4-amine hydrochloride) [14]: 0.05%
Imp-2 (%) (N-(3-Ethynylphenyl)-7-(2-chloroethoxy)-6-(2-methoxyethoxy)-quinazolin-4-amine hydrochloride) [14]: 0.08%
m/c (%) [14]: 0.16%
Assay (%), OAB [14]: 99.5%
Description [14]: Complies
Total Imp [15]: 0.13 % w/w
Imp-1 (%) (N-(3-Ethynylphenyl)-6-(2-chloroethoxy)-7-(2-methoxyethoxy)-quinazolin-4-amine hydrochloride) [15]: 0.05%
Imp-2 (%) (N-(3-Ethynylphenyl)-7-(2-chloroethoxy)-6-(2-methoxyethoxy)-quinazolin-4-amine hydrochloride) [15]: 0.08%
m/c (%) [15]: 0.16%
Assay (%), OAB [15]: 99.9%
Description [15]: Complies
Total Imp [16]: 0.14 % w/w
Imp-1 (%) (N-(3-Ethynylphenyl)-6-(2-chloroethoxy)-7-(2-methoxyethoxy)-quinazolin-4-amine hydrochloride) [16]: 0.06%
Imp-2 (%) (N-(3-Ethynylphenyl)-7-(2-chloroethoxy)-6-(2-methoxyethoxy)-quinazolin-4-amine hydrochloride) [16]: 0.08%
m/c (%) [16]: 0.17%
Assay (%), OAB [16]: 99.4%
Description [16]: Complies
HPLC single maximum impurity content (Initial): 0.08 % w/w
HPLC total impurity content (Initial): 0.13 % w/w
water content (Initial): 0.14 % w/w
HPLC single maximum impurity content (after 3 months): 0.08 % w/w
HPLC total impurity content (after 3 months): 0.13 % w/w
water content (after 3 months): 0.14 % w/w
HPLC single maximum impurity content (after 6 months): 0.08 % w/w
HPLC total impurity content (after 6 months): 0.13 % w/w
water content (after 6 months): 0.14 % w/w
SMILES: C#Cc1cccc(Nc2ncnc3cc(OCCOC)c(OCCOC)cc23)c1.Cl [Erlotinib hydrochloride, 4-(3-Ethynylphenylamino)-6,7-bis(2-methoxyethoxy)-quinazoline]
